US20240209053A1 (Protagonist Therapeutics, Inc., priority 2021, published 2024)
pIC50: −log10 of the molar value. Numbered stars: 1 amine (or outer) side, 2 acyl side, 3 side chain; on linkers, the order of the positions; unused ones are H or OH. Bridge positions count the residues as written; N and C are the ends. Square brackets hold non-standard residues; d marks the D form. Side chains are listed from the residue outwards. Peptide text beside a SMILES is read from it. * marks the point of attachment. Nle(6-ylidene) = O=C([C@H](CCCC=[*:3])N[*:1])[*:2]; Dip = N[C@H](C(=O)O)C(c1ccccc1)c1ccccc1; Hag = O=C([C@H](CCC=[*:3])N[*:1])[*:2]; Palmitoyl = CCCCCCCCCCCCCCCC(=O)*; tBuAla = CC(C)(C)C[C@H](N)C(=O)O; β3hF = N[C@H](CC(=O)O)Cc1ccccc1; AllylGly = C=CC[C@H](N)C(=O)O; Isovaleryl = CC(C)CC(=O)*; Ahx = NCCCCCC(=O)O; GABA = NCCCC(=O)O

Biological target: T1, human ferroportin (SLC40A1) (Homo sapiens, UniProt Q9NP59)
T1 sequence (Q9NP59 1-571): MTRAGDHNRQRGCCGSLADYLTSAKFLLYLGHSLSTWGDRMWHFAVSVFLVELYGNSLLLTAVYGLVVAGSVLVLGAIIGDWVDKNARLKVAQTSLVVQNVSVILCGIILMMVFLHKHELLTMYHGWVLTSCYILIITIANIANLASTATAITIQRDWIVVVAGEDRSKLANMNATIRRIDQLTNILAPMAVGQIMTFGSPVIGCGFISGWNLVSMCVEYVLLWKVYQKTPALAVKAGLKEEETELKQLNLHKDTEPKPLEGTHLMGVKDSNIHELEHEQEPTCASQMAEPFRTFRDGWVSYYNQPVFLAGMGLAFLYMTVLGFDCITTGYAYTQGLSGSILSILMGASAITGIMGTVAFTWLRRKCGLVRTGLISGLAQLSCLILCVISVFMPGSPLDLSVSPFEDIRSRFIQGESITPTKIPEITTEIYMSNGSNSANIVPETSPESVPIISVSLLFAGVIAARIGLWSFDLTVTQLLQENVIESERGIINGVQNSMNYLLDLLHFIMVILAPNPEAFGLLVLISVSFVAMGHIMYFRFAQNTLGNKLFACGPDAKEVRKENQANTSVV
Assay: FPN activity assay: internalization/degradation of ferroportin-GFP in stably transfected HEK293 cells (decrease in GFP fluorescence)
Format: cell-based
Conditions: compound incubated at least 18 hours
Description: Peptide analogues were tested in vitro for induction of internalization of the human ferroportin protein. Following internalization, the ferroporin protein is degraded. The assay used (FPN activity assay) measures a decrease in fluorescence of the receptor. The cDNA encoding the human ferroportin (SLC40A1) was cloned from a cDNA clone from Origene (NM_014585). The DNA encoding the ferroportin was amplified by PCR using primers also encoding terminal restriction sites for subcloning, but without the termination codon. The ferroportin receptor was subcloned into a mammalian GFP expression vector containing a neomycin (G418) resistance marker in such that the reading frame of the ferroportin was fused in frame with the GFP protein. The fidelity of the DNA encoding the protein was confirmed by DNA sequencing. HEK293 cells were used for transfection of the ferroportin-GFP receptor expression plasmid. The cells were grown according to standard protocol in growth medium and transfected with the plasmids using Lipofectamine (manufacturer's protocol, Invitrogen). The cells stably expressing ferroportin-GFP were selected using G418 in the growth medium (in that only cells that have taken up and incorporated the cDNA expression plasmid survive) and sorted several times on a Cytomation MoFloTM cell sorter to obtain the GFP-positive cells (488 nm/530 nm). The cells were propagated and frozen in aliquots. […] Compound was added to desired final concentration for at least 18 hours in the incubator. […] Compound was added to desired final concentration for at least 18 hours but no more than 24 hours in the incubator. […] The “RI” in RI-Mini-Hepcidin refers to Retro Inverse. A retro inverse peptide is a peptide with a reversed sequence in all D amino acids. An example is that […] becomes […]. The EC50 of these reference compounds for ferroportin internalization/degradation was determined according to the FPN activity assay described above. These peptides served as control standards.

Row | Compound | pIC50
1 | CCCCCCCCCCCCCCCC(=O)NCCCCCC(=O)NCCCC[C@H](NC(=O)C[C@H](Cc1ccccc1)NC(=O)[C@@H](CCCCN)NC(=O)[C@@H](NC(=O)[C@@H]1CCC=CCC[C@H](NC(=O)[C@@H](NC(=O)[C@H](Cc2c[nH]cn2)NC(=O)[C@@H](NC(=O)[C@H](CCC(=O)O)NC(=O)CC(C)C)[C@@H](C)O)C(c2ccccc2)c2ccccc2)C(=O)N1)[C@@H](C)CC)C(=O)N[C@H](CCCCN)C(N)=O [Compd 11] | < 6.30
2 | CCCCCCCCCCCCCCCC(=O)NCCCCCC(=O)NCCCC[C@H](NC(=O)C[C@H](Cc1ccccc1)NC(=O)[C@@H](CCCCN)NC(=O)[C@@H](NC(=O)[C@@H]1CCCCC[C@H](NC(=O)[C@H](Cc2c[nH]cn2)NC(=O)[C@@H](NC(=O)[C@H](CCC(=O)O)NC(=O)CC(C)C)[C@@H](C)O)C(=O)N2CCC[C@H]2C(=O)N1)[C@@H](C)CC)C(=O)N[C@H](CCCCN)C(N)=O [Compd 7] | < 6.30
3 | CCCCCCCCCCCCCCCC(=O)NCCCCCC(=O)NCCCC[C@@H]1NC(=O)C[C@H](Cc2ccccc2)NC(=O)[C@@H](CCCCN)NC(=O)[C@H]([C@@H](C)CC)NC(=O)[C@H](C)NC(=O)[C@@H]2CCCN2C(=O)[C@H](C(c2ccccc2)c2ccccc2)NC(=O)[C@H](Cc2c[nH]cn2)NC(=O)[C@H]([C@@H](C)O)NC(=O)[C@@H](NC(=O)CC(C)C)CCC=CCC[C@@H](C(N)=O)NC1=O [Compd 84] (Isovaleryl-[Hag]TH[Dip]PAI[dK][β3hF]K([Ahx-Palmitoyl])[Hag]-NH2; staple 1-11) | 6.30 to 7.00
4 | CCCCCCCCCCCCCCCC(=O)NCCCCCC(=O)NCCCC[C@@H]1NC(=O)[C@@H]2CCCN2C(=O)[C@H](C(c2ccccc2)c2ccccc2)NC(=O)[C@H](Cc2c[nH]cn2)NC(=O)[C@H]([C@@H](C)O)NC(=O)[C@@H](NC(=O)CC(C)C)CCC=CCC[C@@H](C(=O)N[C@H](CC(=O)N[C@H](CCCCN)C(N)=O)Cc2ccccc2)NC1=O (single isomer, unassigned) [Compd 40] | < 6.30
5 | CCCCCCCCCCCCCCCC(=O)NCCCCCC(=O)NCCCC[C@H](NC(=O)C[C@H](Cc1ccccc1)NC(=O)[C@@H](CCCCN)NC(=O)[C@@H](NC(=O)[C@@H]1CCC=CC[C@H](NC(=O)[C@H](Cc2c[nH]cn2)NC(=O)[C@@H](NC(=O)[C@H](CCC(=O)O)NC(=O)CC(C)C)[C@@H](C)O)C(=O)N2CCC[C@H]2C(=O)N1)[C@@H](C)CC)C(=O)N[C@H](CCCCN)C(N)=O [Compd 4] (Isovaleryl-ETH[AllylGly]P[Hag]I[dK][β3hF]K([Ahx-Palmitoyl])[dK]-NH2; staple 4-6) | < 6.30
6 | CCCCCCCCCCCCCCCC(=O)NCCCCCC(=O)NCCCC[C@H](NC(=O)C[C@H](Cc1ccccc1)NC(=O)[C@@H]1CCC=CCC[C@H](NC(=O)CC(C)C)C(=O)N[C@@H]([C@@H](C)O)C(=O)N[C@@H](Cc2c[nH]cn2)C(=O)N[C@@H](CC(C)(C)C)C(=O)N2CCC[C@H]2C(=O)N[C@@H](C)C(=O)N[C@@H]([C@@H](C)CC)C(=O)N1)C(=O)N[C@H](CCCCN)C(N)=O [Compd 60] | 7.00 to 8.00
7 | CCCCCCCCCCCCCCCC(=O)NCCCCCC(=O)NCCCC[C@H](NC(=O)C[C@H](Cc1ccccc1)NC(=O)[C@@H]1CCC=CCC[C@H](NC(=O)CC(C)C)C(=O)N[C@@H]([C@@H](C)O)C(=O)N[C@@H](Cc2c[nH]cn2)C(=O)N[C@@H](C(c2ccccc2)c2ccccc2)C(=O)N2CCC[C@H]2C(=O)NCCCC(=O)N1)C(=O)N[C@H](CCCCN)C(N)=O [Compd 66] (Isovaleryl-[Hag]TH[Dip]P[GABA][Hag][β3hF]K([Ahx-Palmitoyl])[dK]-NH2; staple 1-7) | 7.00 to 8.00

Next, values leading:

Row | pIC50 | Compound
8 | < 6.30 | CCCCCCCCCCCCCCCC(=O)NCCCCCC(=O)NCCCC[C@H](NC(=O)C[C@H](Cc1ccccc1)NC(=O)[C@@H]1CCC=CCC[C@H](NC(=O)CC(C)C)C(=O)N[C@@H]([C@@H](C)O)C(=O)N[C@@H](Cc2c[nH]cn2)C(=O)N[C@@H](C(c2ccccc2)c2ccccc2)C(=O)N2CCC[C@H]2C(=O)N1)C(N)=O (single isomer, unassigned) [Compd 86]
9 | < 6.30 | CCCCCCCCCCCCCCCC(=O)NCCCCCC(=O)NCCCC[C@@H]1NC(=O)[C@@H]2CCCN2C(=O)[C@H](C(c2ccccc2)c2ccccc2)NC(=O)[C@H](Cc2c[nH]cn2)NC(=O)[C@H]([C@@H](C)O)NC(=O)[C@@H](NC(=O)CC(C)C)CCCC=CCCC[C@@H](C(=O)N[C@H](CC(=O)N[C@H](CCCCN)C(N)=O)Cc2ccccc2)NC1=O [Compd 35] (Isovaleryl-[Nle(6-ylidene)]TH[Dip]PK([Ahx-Palmitoyl])[Nle(6-ylidene)][β3hF][dK]-NH2; staple 1-7)
10 | < 6.30 | CCCCCCCCCCCCCCCC(=O)NCCCCCC(=O)NCCCC[C@H](NC(=O)C[C@H](Cc1ccccc1)NC(=O)[C@@H](CCCCN)NC(=O)[C@@H](NC(=O)[C@@H]1CCC=CCC[C@H](NC(=O)[C@H](Cc2c[nH]cn2)NC(=O)[C@@H](NC(=O)[C@H](CCC(=O)O)NC(=O)CC(C)C)[C@@H](C)O)C(=O)N2CCC[C@H]2C(=O)N1)[C@@H](C)CC)C(=O)N[C@H](CCCCN)C(N)=O [Compd 5] (Isovaleryl-ETH[Hag]P[Hag]I[dK][β3hF]K([Ahx-Palmitoyl])[dK]-NH2; staple 4-6)
11 | 7.00 to 8.00 | CCCCCCCCCCCCCCCC(=O)NCCCCCC(=O)NCCCC[C@H](NC(=O)C[C@H](Cc1ccccc1)NC(=O)[C@@H]1CCC=CCC[C@H](NC(=O)CC(C)C)C(=O)N[C@@H]([C@@H](C)O)C(=O)N[C@@H](Cc2c[nH]cn2)C(=O)N[C@@H](C(c2ccccc2)c2ccccc2)C(=O)N[C@@H](C)C(=O)N[C@@H](C)C(=O)N[C@@H]([C@@H](C)CC)C(=O)N1)C(=O)N[C@H](CCCCN)C(N)=O [Compd 44] (Isovaleryl-[Hag]TH[Dip]AAI[Hag][β3hF]K([Ahx-Palmitoyl])[dK]-NH2; staple 1-8)
12 | < 6.30 | CCCCCCCCCCCCCCCC(=O)NCCCCCC(=O)NCCCC[C@H](NC(=O)C[C@H](Cc1ccccc1)NC(=O)[C@@H]1CCC=CCC[C@H](NC(=O)CC(C)C)C(=O)N[C@@H]([C@@H](C)O)C(=O)N[C@@H](Cc2c[nH]cn2)C(=O)N[C@@H](C)C(=O)N2CCC[C@H]2C(=O)N[C@@H](C)C(=O)N[C@@H]([C@@H](C)CC)C(=O)N1)C(=O)N[C@H](CCCCN)C(N)=O [Compd 43] (Isovaleryl-[Hag]THAPAI[Hag][β3hF]K([Ahx-Palmitoyl])[dK]-NH2; staple 1-8)
13 | < 6.30 | CCCCCCCCCCCCCCCC(=O)NCCCCCC(=O)NCCCC[C@H](NC(=O)C[C@H](Cc1ccccc1)NC(=O)[C@@H]1CCC=CCC[C@H](NC(=O)CC(C)C)C(=O)N[C@@H]([C@@H](C)O)C(=O)N[C@@H](Cc2c[nH]cn2)C(=O)N[C@@H](C(c2ccccc2)c2ccccc2)C(=O)N2CCC[C@H]2C(=O)N1)C(N)=O (single isomer, unassigned) [Compd 20]
14 | < 6.30 | CCCCCCCCCCCCCCCC(=O)NCCCCCC(=O)NCCCC[C@H](NC(=O)C[C@H](Cc1ccccc1)NC(=O)[C@@H]1CCC=CCC[C@H](NC(=O)CC(C)C)C(=O)N[C@@H]([C@@H](C)O)C(=O)N[C@@H](CC(C)(C)C)C(=O)N[C@@H](C(c2ccccc2)c2ccccc2)C(=O)N2CCC[C@H]2C(=O)N[C@@H](C)C(=O)N[C@@H]([C@@H](C)CC)C(=O)N1)C(=O)N[C@H](CCCCN)C(N)=O [Compd 59] (Isovaleryl-[Hag]T[tBuAla][Dip]PAI[Hag][β3hF]K([Ahx-Palmitoyl])[dK]-NH2; staple 1-8)
15 | < 6.30 | CCCCCCCCCCCCCCCC(=O)NCCCCCC(=O)NCCCC[C@H](NC(=O)C[C@H](Cc1ccccc1)NC(=O)[C@@H]1CCC=CCC[C@H](NC(=O)CC(C)C)C(=O)N[C@@H]([C@@H](C)O)C(=O)N[C@@H](Cc2c[nH]cn2)C(=O)N[C@@H](C(c2ccccc2)c2ccccc2)C(=O)N2CCC[C@H]2C(=O)N[C@@H]([C@@H](C)CC)C(=O)N1)C(N)=O [Compd 19] (Isovaleryl-[Hag]TH[Dip]PI[Hag][β3hF]K([Ahx-Palmitoyl])-NH2; staple 1-7)
16 | < 6.30 | CCCCCCCCCCCCCCCC(=O)NCCCCCC(=O)NCCCC[C@H](NC(=O)C[C@H](Cc1ccccc1)NC(=O)[C@@H]1CCC=CCC[C@H](NC(=O)CC(C)C)C(=O)N[C@@H](CC(C)(C)C)C(=O)N[C@@H](Cc2c[nH]cn2)C(=O)N[C@@H](C(c2ccccc2)c2ccccc2)C(=O)N2CCC[C@H]2C(=O)N[C@@H](C)C(=O)N[C@@H]([C@@H](C)CC)C(=O)N1)C(=O)N[C@H](CCCCN)C(N)=O [Compd 58] (Isovaleryl-[Hag][tBuAla]H[Dip]PAI[Hag][β3hF]K([Ahx-Palmitoyl])[dK]-NH2; staple 1-8)
